Test results taken from PubChem BioAssay (NCI).
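Tested at 5 concentrations; 48 h exposure; 96-well plates; endpoints linearly interpolated, else capped at highest concentration. GI50 is the concentration that inhibits growth by half. The concentration for full growth arrest is given as TGI.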

Key:
Assay in all cases: inhibition of tumour cell growth, NCI panel, 48 h
786-0 renal = system: 786-0 renal
A498 renal = system: A498 renal
A549 NSCLC = system: A549 NSCLC
BT-549 breast = system: BT-549 breast
CCRF-CEM leukemia = system: CCRF-CEM leukemia
COLO 205 colon = system: COLO 205 colon
DU-145 prostate = system: DU-145 prostate
EKVX NSCLC = system: EKVX NSCLC
HCC-2998 colon = system: HCC-2998 colon
HCT-116 colon = system: HCT-116 colon
HCT-15 colon = system: HCT-15 colon
HL-60(TB) leukemia = system: HL-60(TB) leukemia
HOP-62 NSCLC = system: HOP-62 NSCLC
HOP-92 NSCLC = system: HOP-92 NSCLC
HS 578T breast = system: HS 578T breast
HT29 colon = system: HT29 colon
IGROV1 ovarian = system: IGROV1 ovarian
K-562 leukemia = system: K-562 leukemia
KM12 colon = system: KM12 colon
LOX IMVI melanoma = system: LOX IMVI melanoma
M14 melanoma = system: M14 melanoma
MALME-3M melanoma = system: MALME-3M melanoma
MCF7 breast = system: MCF7 breast
MDA-MB-231 breast = system: MDA-MB-231 breast
MDA-MB-435 = system: MDA-MB-435
MOLT-4 leukemia = system: MOLT-4 leukemia
NCI-H226 lung = system: NCI-H226 lung
NCI-H23 lung = system: NCI-H23 lung
NCI-H460 lung = system: NCI-H460 lung
NCI-H522 lung = system: NCI-H522 lung
NCI/ADR-RES ovarian = system: NCI/ADR-RES ovarian
OVCAR-3 ovarian = system: OVCAR-3 ovarian
OVCAR-4 ovarian = system: OVCAR-4 ovarian
OVCAR-5 ovarian = system: OVCAR-5 ovarian
OVCAR-8 ovarian = system: OVCAR-8 ovarian
PC-3 prostate = system: PC-3 prostate
RPMI-8226 leukemia = system: RPMI-8226 leukemia
SF-268 CNS = system: SF-268 CNS
SF-295 CNS = system: SF-295 CNS
SF-539 CNS = system: SF-539 CNS
SK-MEL-2 melanoma = system: SK-MEL-2 melanoma
SK-MEL-5 melanoma = system: SK-MEL-5 melanoma
SK-OV-3 ovarian = system: SK-OV-3 ovarian
SN12C renal = system: SN12C renal
SNB-19 CNS = system: SNB-19 CNS
SNB-75 CNS = system: SNB-75 CNS
SR leukemia = system: SR leukemia
SW-620 colon = system: SW-620 colon
TK-10 renal = system: TK-10 renal
U251 CNS = system: U251 CNS
UACC-257 melanoma = system: UACC-257 melanoma
UACC-62 melanoma = system: UACC-62 melanoma
UO-31 renal = system: UO-31 renal

SMILES: CCCC[C@H](NC(=O)[C@H]1CCCCN1C)C(=O)N(C)[C@H](C[C@@H](OC(C)=O)c1nc(C(=O)N[C@@H](Cc2ccccc2)C[C@H](C)C(=O)OCC)cs1)C(C)C
- GI50 (786-0 renal): < 3.33 nM
- TGI (786-0 renal): 6270 nM
- GI50 (A498 renal): < 3.33 nM
- TGI (A498 renal): 8.69 nM
- GI50 (A549 NSCLC): 4.44 nM
- TGI (A549 NSCLC): > 33300 nM
- GI50 (BT-549 breast): < 3.33 nM
- TGI (BT-549 breast): 133 nM
- GI50 (CCRF-CEM leukemia): < 3.33 nM
- TGI (CCRF-CEM leukemia): 6210 nM
- GI50 (COLO 205 colon): < 3.33 nM
- TGI (COLO 205 colon): 7.12 nM
- GI50 (DU-145 prostate): < 3.33 nM
- TGI (DU-145 prostate): > 33300 nM
- GI50 (EKVX NSCLC): 7.39 nM
- TGI (EKVX NSCLC): > 33300 nM
- GI50 (HCC-2998 colon): < 3.33 nM
- TGI (HCC-2998 colon): 8390 nM
- GI50 (HCT-116 colon): < 3.33 nM
- TGI (HCT-116 colon): > 33300 nM
- GI50 (HCT-15 colon): 5.21 nM
- TGI (HCT-15 colon): 5730 nM
- GI50 (HL-60(TB) leukemia): < 3.33 nM
- TGI (HL-60(TB) leukemia): 3.41 nM
- GI50 (HOP-62 NSCLC): < 3.33 nM
- TGI (HOP-62 NSCLC): 8610 nM
- GI50 (HOP-92 NSCLC): 1230 nM
- TGI (HOP-92 NSCLC): 27300 nM
- GI50 (HS 578T breast): < 3.33 nM
- TGI (HS 578T breast): 8490 nM
- GI50 (HT29 colon): < 3.33 nM
- TGI (HT29 colon): 3600 nM
- GI50 (IGROV1 ovarian): 3.43 nM
- TGI (IGROV1 ovarian): > 33300 nM
- GI50 (K-562 leukemia): < 3.33 nM
- TGI (K-562 leukemia): 11100 nM
- GI50 (KM12 colon): < 3.33 nM
- TGI (KM12 colon): > 33300 nM
- GI50 (LOX IMVI melanoma): < 3.33 nM
- TGI (LOX IMVI melanoma): 5640 nM
- GI50 (M14 melanoma): < 3.33 nM
- TGI (M14 melanoma): 3620 nM
- GI50 (MALME-3M melanoma): 1080 nM
- TGI (MALME-3M melanoma): 7100 nM
- GI50 (MCF7 breast): < 3.33 nM
- TGI (MCF7 breast): > 33300 nM
- GI50 (MDA-MB-231 breast): < 3.33 nM
- TGI (MDA-MB-231 breast): 341 nM
- GI50 (MDA-MB-435): < 3.33 nM
- TGI (MDA-MB-435): < 3.33 nM
- GI50 (MOLT-4 leukemia): 3.82 nM
- TGI (MOLT-4 leukemia): 20500 nM
- GI50 (NCI-H226 lung): 85.7 nM
- TGI (NCI-H226 lung): 19100 nM
- GI50 (NCI-H23 lung): 6.41 nM
- TGI (NCI-H23 lung): > 33300 nM
- GI50 (NCI-H460 lung): < 3.33 nM
- TGI (NCI-H460 lung): 5650 nM
- GI50 (NCI-H522 lung): < 3.33 nM
- TGI (NCI-H522 lung): 775 nM
- GI50 (NCI/ADR-RES ovarian): 82.8 nM
- TGI (NCI/ADR-RES ovarian): > 33300 nM
- GI50 (OVCAR-3 ovarian): < 3.33 nM
- TGI (OVCAR-3 ovarian): 12200 nM
- GI50 (OVCAR-4 ovarian): 476 nM
- TGI (OVCAR-4 ovarian): > 33300 nM
- GI50 (OVCAR-5 ovarian): 8.33 nM
- TGI (OVCAR-5 ovarian): 21600 nM
- GI50 (OVCAR-8 ovarian): 5.28 nM
- TGI (OVCAR-8 ovarian): > 33300 nM
- GI50 (PC-3 prostate): < 3.33 nM
- TGI (PC-3 prostate): > 33300 nM
- GI50 (RPMI-8226 leukemia): < 3.33 nM
- TGI (RPMI-8226 leukemia): 4850 nM
- GI50 (SF-268 CNS): < 3.33 nM
- TGI (SF-268 CNS): 12100 nM
- GI50 (SF-295 CNS): < 3.33 nM
- TGI (SF-295 CNS): 4340 nM
- GI50 (SF-539 CNS): 3.46 nM
- TGI (SF-539 CNS): 24 nM
- GI50 (SK-MEL-2 melanoma): < 3.33 nM
- TGI (SK-MEL-2 melanoma): 13700 nM
- GI50 (SK-MEL-5 melanoma): < 3.33 nM
- TGI (SK-MEL-5 melanoma): 47.3 nM
- GI50 (SK-OV-3 ovarian): < 3.33 nM
- TGI (SK-OV-3 ovarian): 13000 nM
- GI50 (SN12C renal): 5.83 nM
- TGI (SN12C renal): 6550 nM
- GI50 (SNB-19 CNS): < 3.33 nM
- TGI (SNB-19 CNS): > 33300 nM
- GI50 (SNB-75 CNS): < 3.33 nM
- TGI (SNB-75 CNS): 10800 nM
- GI50 (SR leukemia): < 3.33 nM
- TGI (SR leukemia): 6790 nM
- GI50 (SW-620 colon): < 3.33 nM
- TGI (SW-620 colon): > 33300 nM
- GI50 (TK-10 renal): 7860 nM
- TGI (TK-10 renal): > 33300 nM
- GI50 (U251 CNS): < 3.33 nM
- TGI (U251 CNS): 8580 nM
- GI50 (UACC-257 melanoma): 3560 nM
- TGI (UACC-257 melanoma): 10600 nM
- GI50 (UACC-62 melanoma): < 3.33 nM
- TGI (UACC-62 melanoma): 24100 nM
- GI50 (UO-31 renal): 18.8 nM
- TGI (UO-31 renal): 11900 nM
